According to US8604061B2, “2-aminooxazolines as TAAR1 ligands” (Hoffmann-La Roche Inc., priority 2007, dated 2013):

Target: TAAR1 (Mus musculus, UniProt Q923Y8)
Experiment: TAAR1 radioligand binding, membranes of stably transfected HEK293 cells (mouse)
Details: not given
Protocol: For the construction of expression plasmids the coding sequences of human, rat and mouse TAAR 1 were amplified from genomic DNA essentially as described by Lindemann et al.. The Expand High Fidelity PCR System (Roche Diagnostics) was used with 1.5 mM Mg^2+ and purified PCR products were cloned into pCR2.1-TOPO cloning vector (Invitrogen) following the instructions of the manufacturer. PCR products were subcloned into the pIRESneo2 vector (BD Clontech, Palo Alto, Calif.), and expression vectors were sequence verified before introduction in cell lines.
HEK293 cells (ATCC #CRL-1573) were cultured essentially as described Lindemann et al. (2005). For the generation of stably transfected cell lines HEK293 cells were transfected with the pIRESneo2 expression plasmids containing the TAAR coding sequences (described above) with Lipofectamine 2000 (Invitrogen) according to the instructions of the manufacturer, and 24 hrs post transfection the culture medium was supplemented with 1 mg/ml G418 (Sigma, Buchs, Switzerland). After a culture period of about 10 d clones were isolated, expanded and tested for responsiveness to trace amines (all compounds purchased from Sigma) with the cAMP Biotrak Enzyme immunoassay (EIA) System (Amersham) following the non-acetylation EIA procedure provided by the manufacturer.
Cells at confluence were rinsed with ice-cold phosphate buffered saline without Ca^2+ and Mg^2+ containing 10 mM EDTA and pelleted by centrifugation at 1000 rpm for 5 min at 4° C. The pellet was then washed twice with ice-cold phosphate buffered saline and cell pellet was frozen immediately by immersion in liquid nitrogen and stored until use at −80° C. Cell pellet was then suspended in 20 ml HEPES-NaOH (20 mM), pH 7.4 containing 10 mM EDTA, and homogenized with a Polytron (PT 3000, Kinematica) at 10,000 rpm for 10 s. The homogenate was centrifuged at 48,000×g for 30 min at 4° C. and the pellet resuspended in 20 ml HEPES-NaOH (20 mM), pH 7.4 containing 0.1 mM EDTA (buffer A), and homogenized with a Polytron at 10,000 rpm for 10 s. The homogenate was then centrifuged at 48,000×g for 30 min at 4° C. and the pellet resuspended in 20 ml buffer A, and homogenized with a Polytron at 10,000 rpm for 10 s. Protein concentration was determined by the method of Pierce (Rockford, Ill.). The homogenate was then centrifuged at 48,000×g for 10 min at 4° C., resuspended in HEPES-NaOH (20 mM), pH 7.0 including MgCl2 (10 mM) and […] homogenized with a Polytron at 10,000 rpm for 10 s.
Binding assay was performed at 4° C. in a final volume of 1 ml, and with an incubation time of 30 min. […] Non-specific binding was defined as the amount of [^3H]-rac-2-(1,2,3,4-tetrahydro-1-naphthyl)-2-imidazoline bound in the presence of the appropriate unlabelled ligand (10 μM). Competing ligands were tested in a wide range of concentrations (10 pM-30 μM). […] Each experiment was performed in duplicate. All incubations were terminated by rapid filtration through UniFilter-96 plates (Packard Instrument Company) and glass filter GF/C, pre-soaked for at least 2 h in polyethylenimine 0.3%, and using a Filtermate 96 Cell Harvester (Packard Instrument Company). The tubes and filters were then washed 3 times with 1 ml aliquots of cold buffer B. Filters were not dried and soaked in Ultima gold (45 μl/well, Packard Instrument Company) and bound radioactivity was counted by a TopCount Microplate Scintillation Counter (Packard Instrument Company).

Row | SMILES | Ki [µM]
1 | NC1=NC(c2ccc(-c3ccccc3)cc2)CO1 (racemic) [Example 10, (RS)-4-Biphenyl-4-yl-4,5-dihydro-oxazol-2-ylamine] | 0.0025
2 | Cc1ccccc1C1COC(N)=N1 (racemic) [Example 8, (RS)-4-o-Tolyl-4,5-dihydro-oxazol-2-ylamine] | 0.0058
3 | NC1=N[C@@H](CCc2ccc(F)cc2Cl)CO1 [Example 139, (S)-4-[2-(2-Chloro-4-fluoro-phenyl)-ethyl]-4,5-dihydro-oxazol-2-ylamine] | 0.0019
4 | NC1=NC(c2ccc(Cl)cc2C(F)(F)F)CO1 (racemic) [Example 226, (RS)-4-(4-Chloro-2-trifluoromethyl-phenyl)-4,5-dihydro-oxazol-2-ylamine] | 0.0054
5 | NC1=NC(c2ccc3c(c2)OCCO3)CO1 (racemic) [Example 32, (RS)-4-(2,3-Dihydro-benzo[1,4]dioxin-6-yl)-4,5-dihydro-oxazol-2-ylamine] | 0.0029
6 | NC1=N[C@@H](c2ccc(Cl)c(F)c2)CO1 [Example 174, (S)-4-(4-Chloro-3-fluoro-phenyl)-4,5-dihydro-oxazol-2-ylamine] | 0.0006
7 | NC1=NC(c2ccc(F)cc2F)CO1 (racemic) [Example 7, (RS)-4-(2,4-Difluoro-phenyl)-4,5-dihydro-oxazol-2-ylamine] | 0.0083
8 | NC1=NC(c2cccc(F)c2C(F)(F)F)CO1 (racemic) [Example 371, (RS)-4-(3-Fluoro-2-trifluoromethyl-phenyl)-4,5-dihydro-oxazol-2-ylamine] | 0.0096
9 | NC1=NC(c2ccccc2C(F)(F)F)CO1 (racemic) [Example 6, (RS)-4-(2-Trifluoromethyl-phenyl)-4,5-dihydro-oxazol-2-ylamine] | 0.0038
10 | Cc1cccc(CC[C@H]2COC(N)=N2)c1 [Example 115, (S)-4-(2-m-Tolyl-ethyl)-4,5-dihydro-oxazol-2-ylamine] | 0.001
11 | CCc1cc(Cl)ccc1C1COC(N)=N1 (racemic) [Example 344, (RS)-4-(4-Chloro-2-ethyl-phenyl)-4,5-dihydro-oxazol-2-ylamine] | 0.0025
12 | NC1=NC(c2ccc(F)c(F)c2F)CO1 (racemic) [Example 17, (RS)-4-(2,3,4-Trifluoro-phenyl)-4,5-dihydro-oxazol-2-ylamine] | 0.0057
13 | Cc1ccccc1[C@H]1COC(N)=N1 [39a (S), (S)-4-o-Tolyl-4,5-dihydro-oxazol-2-ylamine] | 0.0025
14 | COc1ccc(C2COC(N)=N2)cc1Cl (racemic) [Example 36, (RS)-4-(3-Chloro-4-methoxyphenyl)-4,5-dihydro-oxazol-2-ylamine] | 0.0034
15 | Cc1ccc(Cl)cc1C1COC(N)=N1 (racemic) [Example 272, (RS)-4-(5-Chloro-2-methyl-phenyl)-4,5-dihydro-oxazol-2-ylamine] | 0.0013

Same assay, conditions: mouse/rat; cell not marked 'rat'; radioligand [3H]-rac-2-(1,2,3,4-tetrahydro-1-naphthyl)-2-imidazoline, 4° C.; read-out: Ki (μM) mouse/rat

Row | SMILES | Ki [µM]
16 | CC(C[C@H]1COC(N)=N1)c1cccc(C(F)(F)F)c1 (stereo partly drawn) [Example 193, (S)-4-[2-(3-Trifluoromethyl-phenyl)-propyl]-4,5-dihydro-oxazol-2-ylamine] | 0.0043
17 | COc1cc(CC[C@H]2COC(N)=N2)ccc1F [Example 86, (S)-4-[2-(4-Fluoro-3-methoxy-phenyl)-ethyl]-4,5-dihydro-oxazol-2-ylamine] | 0.0008
18 | CCC(C[C@H]1COC(N)=N1)c1ccccc1 (stereo partly drawn) [Example 163, (S)-4-(2-Phenyl-butyl)-4,5-dihydro-oxazol-2-ylamine] | 0.0037
19 | NC1=N[C@@H](CCc2ccc(F)cc2F)CO1 [Example 88] | 0.001
20 | NC1=N[C@@H](CCc2cccc(C(F)(F)F)c2F)CO1 [Example 142, (S)-4-[2-(2-Fluoro-3-trifluoromethyl-phenyl)-ethyl]-4,5-dihydro-oxazol-2-ylamine] | 0.0018
21 | NC1=N[C@@H](c2cc(F)cc(Cl)c2)CO1 [Example 178, (S)-4-(3-Chloro-5-fluoro-phenyl)-4,5-dihydro-oxazol-2-ylamine] | 0.0004
22 | NC1=N[C@@H](CCc2cc(C(F)(F)F)ccc2C(F)(F)F)CO1 [Example 160, (S)-4-[2-(2,5-Bis-trifluoromethyl-phenyl)-ethyl]-4,5-dihydro-oxazol-2-ylamine] | 0.0028
23 | C[C@]1(c2cc(F)cc(Cl)c2)COC(N)=N1 [Example 266, (S)-4-(3-Chloro-5-fluoro-phenyl)-4-methyl-4,5-dihydro-oxazol-2-ylamine] | 0.0016
24 | NC1=N[C@@H](c2cc(F)c(F)cc2F)CO1 [Example 107, (S)-4-(2,4,5-Trifluoro-phenyl)-4,5-dihydro-oxazol-2-ylamine] | 0.004
25 | C[C@]1(c2ccc(F)cc2F)COC(N)=N1 [Example 206, (S)-4-(2,4-Difluoro-phenyl)-4-methyl-4,5-dihydro-oxazol-2-ylamine] | 0.0032
26 | NC1=N[C@@H](CCc2ccc(C(F)(F)F)cc2)CO1 [Example 119, (S)-4-[2-(4-Trifluoromethyl-phenyl)-ethyl]-4,5-dihydro-oxazol-2-ylamine] | 0.0026
27 | NC1=N[C@@H](c2cccc(Cl)c2)CO1 [Example 192, (+)-(S)-4-(3-Chloro-phenyl)-4,5-dihydro-oxazol-2-ylamine] | 0.0019
28 | C[C@]1(c2ccc(Cl)c(F)c2)COC(N)=N1 [Example 236, (S)-4-(4-Chloro-3-fluoro-phenyl)-4-methyl-4,5-dihydro-oxazol-2-ylamine] | 0.002
29 | C[C@]1(c2ccc(Cl)c(Cl)c2)COC(N)=N1 [Example 135, (S)-4-(3,4-Dichloro-phenyl)-4-methyl-4,5-dihydro-oxazol-2-ylamine] | 0.0009
30 | NC1=N[C@@H](COc2cccc(Cl)c2)CO1 [Example 343, (S)-4-(3-Chloro-phenoxymethyl)-4,5-dihydro-oxazol-2-ylamine] | 0.0028
31 | NC1=N[C@@H](CCc2cccc(Br)c2)CO1 [Example 143, (S)-4-[2-(3-Bromo-phenyl)-ethyl]-4,5-dihydro-oxazol-2-ylamine] | 0.0007
32 | C[C@]1(c2cc(F)c(F)c(F)c2)COC(N)=N1 [Example 306, (S)-4-Methyl-4-(3,4,5-trifluoro-phenyl)-4,5-dihydro-oxazol-2-ylamine] | 0.0027
33 | NC1=N[C@@H](c2cccc(C(F)(F)F)c2)CO1 [Example 153, (S)-4-(3-Trifluoromethyl-phenyl)-4,5-dihydro-oxazol-2-ylamine] | 0.0083
34 | NC1=N[C@@H](COc2ccc(Cl)cc2)CO1 [Example 216, (S)-4-(4-Chloro-phenoxymethyl)-4,5-dihydro-oxazol-2-ylamine] | 0.002
35 | CC(C[C@H]1COC(N)=N1)c1ccccc1F (stereo partly drawn) [Example 217, (S)-4-[2-(2-Fluoro-phenyl)-propyl]-4,5-dihydro-oxazol-2-ylamine] | 0.0015
36 | CC[C@@H](C[C@H]1COC(N)=N1)c1ccccc1 [Example 292, (S)-4-((S)-2-Phenyl-butyl)-4,5-dihydro-oxazol-2-ylamine] | 0.0035
37 | C[C@]1(c2ccccc2Cl)COC(N)=N1 [Example 180, (S)-4-(2-Chloro-phenyl)-4-methyl-4,5-dihydro-oxazol-2-ylamine] | 0.0088
38 | NC1=N[C@@H](CCc2ccc(C(F)(F)F)c(F)c2)CO1 [Example 137, (S)-4-[2-(3-Fluoro-4-trifluoromethyl-phenyl)-ethyl]-4,5-dihydro-oxazol-2-ylamine] | 0.0025
39 | CC1(c2cc(F)c(F)c(F)c2)COC(N)=N1 (racemic) [Example 273, (RS)-4-Methyl-4-(3,4,5-trifluoro-phenyl)-4,5-dihydro-oxazol-2-ylamine] | 0.0095
40 | NC1=N[C@@H](CCc2cccc(OC(F)(F)C(F)F)c2)CO1 [Example 141, (S)-4-{2-[3-(1,1,2,2-Tetrafluoro-ethoxy)-phenyl]-ethyl}-4,5-dihydro-oxazol-2-ylamine] | 0.0027
